Laboratory results published in patent publication US20190365720A1, “Novel formulations of amidine substituted beta-lactam compounds on the basis of modified cyclodextrins and acidifying agents, their preparation and use as antimicrobial pharmaceutical compositions” (AiCuris Anti-Infective Cures GmbH, priority 2016, published 2019).
Converted amounts (≈) assume the structure as drawn. “Also recorded” adds a separate entry of the source.

What was measured:
[1] = Physical / in-use stability of solutions at room temperature; format: physicochemical
[2] = Fraction bound to plasma protein in mice; format: in vitro ADME; conditions: mouse, read-out: Fraction bound to plasma protein (fp) (converted)
[3] = Calculated fraction of compound (I) bound to SBE-β-CD in blood plasma after i.v. administration; set-up: species or system mice; conditions: after i.v. administration at time zero
Protocol: On average, mice have 79 ml of blood per kg of body weight (see https://en.wikipedia.org/wiki/Blood_volume; Oct. 3, 2016). If the blood plasma is 55% of the total blood volume then mice have around 43 ml of plasma per kg of body weight. The dose was 25 mg/kg (0.037 mmoles/kg) of compound (I) and 156.5 mg/kg ([…]) of SBE-β-CD. After mixing with the blood plasma the initial plasma concentration should be 8.6.10^−4 M of compound (I) and 1.7.10^−3 M of SBE-β-CD.

[4] = pH-dependent solubility of compound (I); format: physicochemical; conditions: 25 °C
Protocol: The solubility profile of the API of a compound of formula (I) was measured at two different pH values (see […]): FIG. 23: pH solubility profile in pure water at 25° C.

[5] = Solubility of compound (I) in selected solvent systems by UPLC; format: physicochemical; conditions: aqueous with cosolvent or surfactant or cyclodextrin, thermodynamic from solid, 25° C.
Protocol: To determine the solubility of a compound (I) in selected solvent systems in accordance with the invention, UPLC was used, and physicochemical properties such as pH and physical appearance were monitored. The solubility of compound (I) in solution was determined at 25° C. separately in following solvent systems at three time points (at 2 hours, at 6 hours and at 24 hours) in duplicates. 1) Hydroxypropyl-β-cyclodextrin solution (30% w/v) 2) Hydroxypropyl-β-cyclodextrin (30% w/v) solution containing 2% CA 3) Solvent mixture of PEG400 (40%)+2% CA (60%) To the vial for each time point 3 mL of individual solvent were added followed by addition of the weighed amount of compound (I) (100 mg). This system was kept for stirring on a magnetic stirrer at 700 rpm. At each time point, the solution was filtered through a […] syringe filter and analysed for the content of compound (I) using UPLC after suitable dilutions.

female rabbits = assay: Local tolerance after single intravenous infusion into the marginal ear vein; format: in vivo, rabbit
Protocol: The aim of this example was to test the local tolerance of a compound (I) containing aqueous injectable solution in accordance with the invention in female rabbits following a single intravenous infusion for 30 or 60 minutes. Each animal received 15 mL of a formulation containing 5 mg compound (I) as API per mL into the marginal vein of the right ear. Two groups of 9 female animals, each, were employed with infusion durations of 30 or 60 minutes per dose. In addition, a placebo solution as vehicle control, was administered in the same volume and duration on the left ear of each animal. 24, 72 and 96 hours after administration respectively 3 animals per group were sacrificed and the injection sites were examined macro- and microscopically. The application formulations were freshly prepared on the administration day. The compound (I) and the placebo were dissolved in the vehicles to the appropriate concentrations: 15 mL of WFI were added to 1 compound (I) drug product vial and shaken well. The solution volume expanded to approximately 17 mL. The final concentration was approximately 29 mg/mL. Withdraw 17 mL from 100 mL of lactated Ringer's solution. Then add the reconstituted solution (approx. 17 mL from step 1). Mix well. The final concentration was approximately […]. Species: rabbit; Strain: New Zealand White Selection of species: the rabbit is a commonly used species for local tolerance studies. Number and sex of animals: 18 female animals Age (at start of administration): approx. 3 months Body weight (at start of administration): 2.31 to 2.73 kg Acclimatisation period: at least 20 acclimatisation days; 4 test days Routes of administration: single intravenous infusion into the marginal vein of the ear. Selection of routes of administration: according to clinical use via intravenous route. The compound (I) solutions were administered to the right ear, and the placebo solutions were administered to the left ear of each animal. Local reactions were inspected macroscopically 1 […] and 96 h after injection. The reactions were scored on the basis of DRAIZE, Appraisal of the Safety of Chemicals in Food, Drugs and Cosmetics, Association of Food and Drug Officials of the United States, Austin, Tex., 1959. The animals scheduled for the respective dissection day were sacrificed with pentobarbitol injection into an ear vein (not used for infusion). All animals were subjected to gross examination including the opening of the cranial, thoracic and abdominal cavities and the examination of the major organs. Particular attention was paid to the appropriate injection sites (test and control items). All abnormalities were recorded. Tissue abnormalities would have been preserved in 10% neutral buffered formalin. Histopathological examination was performed on treated infusion sites (compound (I) and placebo, 2 sites per animal) plus an untreated adjacent site from all animals. Tissue samples were fixed in 10% buffered formalin. Paraffin sections (3 to 5 μm) were prepared, stained with hematoxylin-eosin, and examined histologically.

Stability after reconstitution [1]: 6 h
fraction unbound [2]: 0.779
Fraction of compound (I) free or bound to plasma proteins [3]: about 80%
Fraction of compound (I) bound to SBE-β-CD ([3]; 25 mg/kg with 156.5 mg/kg SBE-β-CD, plasma pH 7.4): about 22%
solubility ([4]; pure water (pH-adjusted, no cyclodextrin), pH 7.4, aqueous buffer): 1000 µg/mL (≈ 1.5 mM)
solubility ([4]; pure water, aqueous buffer, pH 4.0): 10000 µg/mL (≈ 15 mM)
solubility ([5]; 30% HP-β-CD plus 2% CA): 16200 µg/mL
solubility ([5]; hydroxypropyl-β-cyclodextrin solution (30% w/v), 30% HP-β-CD as sole excipient): 2700 µg/mL (≈ 4.04 mM)
SMILES: CC1(C)[C@H](NC(=O)/C(=N\O[C@@H](COc2ccc(C(=N)N[C@@H]3CCCNC3)cc2)C(=O)O)c2csc(N)n2)C(=O)N1OS(=O)(=O)O [compound (I)]
Body weight (female rabbits; 15 mL of 5 mg/mL i.v. infusion): No influence on the body weight
Clinical signs (female rabbits; 15 mL of 5 mg/mL i.v. infusion): No clinical signs of toxicity
Necropsy findings (female rabbits; 15 mL of 5 mg/mL i.v. infusion, 30 or 60 min): did not reveal any changes
Macroscopic changes at infusion sites (female rabbits; 15 mL of 5 mg/mL i.v. infusion, 30 or 60 min, inspected 1 h to 96 h): did not reveal any changes
Microscopic (histopathological) changes at infusion sites (female rabbits; 15 mL of 5 mg/mL i.v. infusion, 30 or 60 min, versus vehicle control sites): did not reveal any compound (I)-related changes; also recorded: did not cause any compound (I)-related histopathological changes
Compatibility following intravenous infusion (female rabbits; overall conclusion): very good compatibility
